According to ChEMBL document CHEMBL4806963, “Antagonistic peptides for frizzled-1 and frizzled-2” (2013):
Calls of active or inactive are those of the source. The rule behind the calls is not given here. Where a SMILES comes first, the peptide text is derived from it.

Assays:
[1] = target: Frizzled-1 (Rattus norvegicus) (UniProt Q08463); test: Antagonist activity at rat frizzled-1 expressed in rat C-FIT cells assessed as inhibition of Wnt5a-stimulated blockade of migration at 10 nM incubated for 48 hrs and measured for 24 hrs following the scratch by scratch wound healing assay; format: cell-based; details: filed as antagonist, time 72.0 hrs
Chain of Frizzled-1 (Rattus norvegicus) (Q08463 whole entry): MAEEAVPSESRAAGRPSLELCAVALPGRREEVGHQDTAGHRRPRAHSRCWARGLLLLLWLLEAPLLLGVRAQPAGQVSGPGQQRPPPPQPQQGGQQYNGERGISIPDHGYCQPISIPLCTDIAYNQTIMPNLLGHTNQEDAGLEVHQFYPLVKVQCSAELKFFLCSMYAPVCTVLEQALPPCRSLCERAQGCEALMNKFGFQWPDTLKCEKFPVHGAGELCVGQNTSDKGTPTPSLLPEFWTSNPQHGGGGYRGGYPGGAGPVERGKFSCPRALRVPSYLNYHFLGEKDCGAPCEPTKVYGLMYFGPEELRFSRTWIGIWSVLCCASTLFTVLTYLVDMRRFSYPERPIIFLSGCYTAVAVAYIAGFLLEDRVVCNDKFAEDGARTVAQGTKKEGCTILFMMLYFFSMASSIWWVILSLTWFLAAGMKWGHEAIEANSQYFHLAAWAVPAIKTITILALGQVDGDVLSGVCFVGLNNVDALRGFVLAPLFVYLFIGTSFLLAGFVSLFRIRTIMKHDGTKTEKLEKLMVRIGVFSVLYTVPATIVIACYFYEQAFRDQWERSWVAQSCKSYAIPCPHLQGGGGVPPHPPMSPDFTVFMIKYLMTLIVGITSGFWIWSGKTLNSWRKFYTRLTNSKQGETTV

Mus musculus [2] = test: Cardioprotective activity against myocardial infarction Swiss mouse model assessed as reduction in collagen level in infarct area at 6 ug/kg/day, sc via osmotic pumps for 5 weeks by immunohistochemical staining analysis; format: functional, organism-based; details: dose 6.0 µg/kg/day
[3] = target: Frizzled-1 (Rattus norvegicus) (UniProt Q08463); test: Antagonist activity at Wnt3a-stimulated rat frizzled-1 expressed in African green monkey COS7 cells incubated for 24 hrs by luciferase reporter gene assay relative to control; format: cell-based; details: filed as antagonist, concentration not given here
[4] = target: Frizzled-2 (Rattus norvegicus) (UniProt Q08464); test: Agonist activity at rat frizzled-2 expressed in human HEK293superTOP flash cells by luciferase reporter gene assay; format: cell-based; details: HEK293
Chain of Frizzled-2 (Rattus norvegicus) (Q08464 29-570 limits assumed): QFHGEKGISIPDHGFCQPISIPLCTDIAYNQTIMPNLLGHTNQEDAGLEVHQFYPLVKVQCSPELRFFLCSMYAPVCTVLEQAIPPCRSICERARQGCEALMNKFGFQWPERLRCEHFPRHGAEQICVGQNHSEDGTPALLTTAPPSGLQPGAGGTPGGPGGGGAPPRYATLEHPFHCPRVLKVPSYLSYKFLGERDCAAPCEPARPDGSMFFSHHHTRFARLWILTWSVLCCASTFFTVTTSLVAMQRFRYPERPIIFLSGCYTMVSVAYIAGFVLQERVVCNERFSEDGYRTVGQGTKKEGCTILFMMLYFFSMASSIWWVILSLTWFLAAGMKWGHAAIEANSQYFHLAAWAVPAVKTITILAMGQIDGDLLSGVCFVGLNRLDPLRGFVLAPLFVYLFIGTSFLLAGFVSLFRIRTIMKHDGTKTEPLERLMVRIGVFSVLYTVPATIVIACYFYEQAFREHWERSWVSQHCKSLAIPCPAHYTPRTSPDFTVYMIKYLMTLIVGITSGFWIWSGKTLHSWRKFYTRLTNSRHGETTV

[5] = target: Frizzled-1 (Rattus norvegicus) (UniProt Q08463); test: Agonist activity at rat frizzled-1 expressed in human HEK293superTOP flash cells by luciferase reporter gene assay; format: cell-based; details: HEK293
[6] = target: Frizzled-2 (Homo sapiens) (UniProt Q14332); test: Antagonist activity at frizzled-2 (unknown origin) expressed in rat C-FIT cells assessed as inhibition of Wnt3a-stimulated cell differentiation changes by measuring alpha-smooth muscle actin gene expression at 10 nM by quantitative RT-PCR analysis; format: functional, cell-based; details: filed as antagonist
Chain of Frizzled-2 (Homo sapiens) (Q14332 24-565 limits assumed): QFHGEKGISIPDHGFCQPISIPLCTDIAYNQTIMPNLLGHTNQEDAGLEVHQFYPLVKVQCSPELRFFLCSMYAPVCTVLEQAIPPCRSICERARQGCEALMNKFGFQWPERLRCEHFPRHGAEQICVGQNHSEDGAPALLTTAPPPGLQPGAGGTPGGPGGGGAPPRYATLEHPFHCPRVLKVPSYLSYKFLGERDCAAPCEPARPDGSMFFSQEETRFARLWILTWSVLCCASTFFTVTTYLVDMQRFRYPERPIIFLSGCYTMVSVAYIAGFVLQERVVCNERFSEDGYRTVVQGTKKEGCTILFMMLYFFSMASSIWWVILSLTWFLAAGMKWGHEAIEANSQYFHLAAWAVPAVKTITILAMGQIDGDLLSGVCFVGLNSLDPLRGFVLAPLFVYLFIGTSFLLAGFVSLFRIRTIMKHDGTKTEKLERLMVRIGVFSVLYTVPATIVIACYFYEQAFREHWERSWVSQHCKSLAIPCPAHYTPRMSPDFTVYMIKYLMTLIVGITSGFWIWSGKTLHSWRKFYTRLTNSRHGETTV

Mus musculus [7] = test: Cardioprotective activity against myocardial infarction Swiss mouse model assessed as increase in alpha-SMA protein expression in heart at 6 ug/kg/day, sc via osmotic pumps for 5 weeks by western blot analysis; format: functional, organism-based; details: dose 6.0 µg/kg/day
[8] = target: T1, Frizzled-4 (Homo sapiens) (UniProt Q9ULV1); test: Antagonist activity at Wnt3a-stimulaed human frizzled-4 expressed in human HEK293superTOP flash cells at 10 nM incubated for 24 hrs by luciferase reporter gene assay; format: functional, cell-based; details: HEK293
T1 sequence (whole entry): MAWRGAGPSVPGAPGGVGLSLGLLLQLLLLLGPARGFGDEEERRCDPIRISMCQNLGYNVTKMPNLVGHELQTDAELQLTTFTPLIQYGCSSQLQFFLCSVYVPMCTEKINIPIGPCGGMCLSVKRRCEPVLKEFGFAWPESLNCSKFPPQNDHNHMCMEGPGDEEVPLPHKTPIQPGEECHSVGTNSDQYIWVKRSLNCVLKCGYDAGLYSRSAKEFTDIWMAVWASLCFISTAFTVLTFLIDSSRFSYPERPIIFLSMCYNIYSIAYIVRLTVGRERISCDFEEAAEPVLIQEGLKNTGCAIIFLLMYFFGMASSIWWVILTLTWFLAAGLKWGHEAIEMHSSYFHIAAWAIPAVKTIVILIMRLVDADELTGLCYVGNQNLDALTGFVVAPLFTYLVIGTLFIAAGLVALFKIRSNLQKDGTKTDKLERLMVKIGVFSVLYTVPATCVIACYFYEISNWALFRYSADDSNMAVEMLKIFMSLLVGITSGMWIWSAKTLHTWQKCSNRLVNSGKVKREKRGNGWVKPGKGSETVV

Mus musculus [9] = test: Cardioprotective activity against myocardial infarction Swiss mouse model assessed as increase in amount of blood vessels in heart at 6 ug/kg/day, sc via osmotic pumps for 5 weeks by immunohistochemical staining analysis; format: functional, organism-based; details: dose 6.0 µg/kg/day
[10] = target: Frizzled-1 (Rattus norvegicus) (UniProt Q08463); test: Antagonist activity at Wnt3a-stimulated rat frizzled-1 expressed in human HEK293superTOP flash cells at 10 nM incubated for 24 hrs by luciferase reporter gene assay relative to control; format: cell-based; details: HEK293, filed as antagonist
[11] = target: Frizzled-1 (Homo sapiens) (UniProt Q9UP38); test: Antagonist activity at frizzled-1 (unknown origin) expressed in rat C-FIT cells assessed as inhibition of Wnt3a-stimulated blockade of migration at 10 nM incubated for 48 hrs and measured for 24 hrs following the scratch by scratch wound healing assay; format: functional, cell-based; details: filed as antagonist, time 72.0 hrs
Chain of Frizzled-1 (Homo sapiens) (Q9UP38 70-647 limits assumed): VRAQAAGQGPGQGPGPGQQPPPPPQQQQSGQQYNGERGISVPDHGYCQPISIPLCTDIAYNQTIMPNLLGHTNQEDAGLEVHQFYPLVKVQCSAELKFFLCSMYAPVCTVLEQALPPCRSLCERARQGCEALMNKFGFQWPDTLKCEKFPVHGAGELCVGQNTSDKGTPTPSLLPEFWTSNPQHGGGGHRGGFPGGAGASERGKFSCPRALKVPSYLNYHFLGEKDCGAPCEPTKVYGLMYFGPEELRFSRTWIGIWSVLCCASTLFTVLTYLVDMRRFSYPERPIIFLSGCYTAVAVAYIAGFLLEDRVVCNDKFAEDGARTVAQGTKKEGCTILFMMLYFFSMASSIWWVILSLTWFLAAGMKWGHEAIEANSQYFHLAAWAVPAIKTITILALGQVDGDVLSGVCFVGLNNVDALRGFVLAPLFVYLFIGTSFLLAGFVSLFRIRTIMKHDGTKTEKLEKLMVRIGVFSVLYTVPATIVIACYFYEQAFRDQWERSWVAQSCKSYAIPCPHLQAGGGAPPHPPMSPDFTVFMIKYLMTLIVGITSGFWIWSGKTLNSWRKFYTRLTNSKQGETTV

[12] = target: Frizzled-1 (Rattus norvegicus) (UniProt Q08463); test: Antagonist activity at Wnt3a-stimulated rat frizzled-1 expressed in CHO cells incubated for 24 hrs by luciferase reporter gene assay relative to control; format: cell-based; details: filed as antagonist, concentration not given here

CSCC[C@H](NC(=O)CNC(=O)[C@H](CCC(=O)O)NC(=O)[C@H](CO)NC(=O)[C@@H](NC(=O)[C@H](CCCCN)NC(=O)[C@H](CC(N)=O)NC(=O)[C@H](CS)NC(C)=O)[C@@H](C)O)C(=O)N[C@@H](CC(=O)O)C(=O)NCC(=O)N[C@@H](CS)C(=O)N[C@@H](CCC(=O)O)C(=O)N[C@@H](CC(C)C)C(N)=O (Ac-CNKTSEGMDGCEL-NH2)
inhibition [1]: 100%
Activity (Mus musculus [2]): Active
inhibition [3]: 100%
Activity [4]: inactive
Activity [5]: inactive
inhibition [6]: 100%
Activity (Mus musculus [7]): Active
inhibition [8]: inactive
Activity (Mus musculus [9]): Active
inhibition [10]: 100%
inhibition [11]: 100%
inhibition [12]: 100%
